Measurements from ChEMBL document CHEMBL1641516, “Preparation and evaluation of trisubstituted pyrimidines as phosphatidylinositol 3-kinase inhibitors. 3-Hydroxyphenol analogues and bioisosteric replacements” (Bioorg Med Chem, 2011).

Legend:
[1] = target: Phosphatidylinositol 4,5-bisphosphate 3-kinase catalytic subunit alpha isoform (Homo sapiens, UniProt P42336)
Description: Inhibition of human recombinant PI3K p110alpha after 1 hr by radiometric scintillation proximity assay

[2] = Metabolic stability in mouse liver microsomes assessed as compound metabolized at […] after 15 mins by MS analysis; type: ADME, Microsome; details: read-out: Activity
[3] = tested on: IGROV-1; assay: cells; details: Homo sapiens, IGROV-1, 96 h
Description: Cytotoxicity against human IGROV1 cells after 96 hrs by SRB assay

[4] = tested on: IGROV-1; assay: Cell cycle arrest in human IGROV1 cells assessed as accumulation at G1 phase at 1 fold IC50 after 24 hrs by flow cytometry; type: functional
[5] = target: Phosphatidylinositol 4,5-bisphosphate 3-kinase catalytic subunit gamma isoform (Homo sapiens, UniProt P48736)
Chain of Phosphatidylinositol 4,5-bisphosphate 3-kinase catalytic subunit gamma isoform (P48736 whole entry, canonical isoform): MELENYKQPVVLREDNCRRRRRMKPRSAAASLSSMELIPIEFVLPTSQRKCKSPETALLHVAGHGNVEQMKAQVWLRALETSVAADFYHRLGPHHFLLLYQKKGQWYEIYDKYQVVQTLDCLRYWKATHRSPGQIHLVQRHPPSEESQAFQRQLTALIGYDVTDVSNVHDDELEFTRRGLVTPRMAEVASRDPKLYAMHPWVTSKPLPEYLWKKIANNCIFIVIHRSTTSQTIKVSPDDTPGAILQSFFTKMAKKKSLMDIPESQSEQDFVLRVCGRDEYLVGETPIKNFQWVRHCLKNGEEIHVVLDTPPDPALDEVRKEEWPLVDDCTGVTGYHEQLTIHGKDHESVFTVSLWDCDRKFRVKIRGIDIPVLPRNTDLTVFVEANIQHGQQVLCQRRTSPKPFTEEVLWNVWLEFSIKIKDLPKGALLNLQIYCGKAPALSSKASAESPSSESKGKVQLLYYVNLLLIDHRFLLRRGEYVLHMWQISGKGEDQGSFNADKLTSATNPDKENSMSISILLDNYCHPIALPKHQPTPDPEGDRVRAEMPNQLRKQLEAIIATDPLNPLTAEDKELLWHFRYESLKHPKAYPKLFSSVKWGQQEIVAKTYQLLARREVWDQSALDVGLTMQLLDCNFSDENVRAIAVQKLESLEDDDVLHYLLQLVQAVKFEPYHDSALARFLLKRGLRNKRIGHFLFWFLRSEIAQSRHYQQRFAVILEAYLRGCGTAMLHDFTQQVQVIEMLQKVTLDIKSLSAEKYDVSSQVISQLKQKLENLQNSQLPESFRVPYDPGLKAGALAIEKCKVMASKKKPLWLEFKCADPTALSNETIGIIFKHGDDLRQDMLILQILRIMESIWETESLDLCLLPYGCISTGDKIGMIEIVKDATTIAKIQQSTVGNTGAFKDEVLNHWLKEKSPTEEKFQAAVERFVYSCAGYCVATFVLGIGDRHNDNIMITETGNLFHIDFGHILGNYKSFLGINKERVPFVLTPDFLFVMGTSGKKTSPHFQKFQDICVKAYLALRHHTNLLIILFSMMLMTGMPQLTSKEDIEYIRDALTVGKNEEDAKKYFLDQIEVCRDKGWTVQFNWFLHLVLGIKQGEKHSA
Description: Inhibition of human recombinant PI3K p110gamma after 1 hr by radiometric scintillation proximity assay

[6] = target: Phosphatidylinositol 4,5-bisphosphate 3-kinase catalytic subunit beta isoform (Homo sapiens, UniProt P42338); assay: Inhibition of human recombinant PI3K p110beta after 1 hr by radiometric scintillation proximity assay
Chain of Phosphatidylinositol 4,5-bisphosphate 3-kinase catalytic subunit beta isoform (P42338 whole entry, canonical isoform): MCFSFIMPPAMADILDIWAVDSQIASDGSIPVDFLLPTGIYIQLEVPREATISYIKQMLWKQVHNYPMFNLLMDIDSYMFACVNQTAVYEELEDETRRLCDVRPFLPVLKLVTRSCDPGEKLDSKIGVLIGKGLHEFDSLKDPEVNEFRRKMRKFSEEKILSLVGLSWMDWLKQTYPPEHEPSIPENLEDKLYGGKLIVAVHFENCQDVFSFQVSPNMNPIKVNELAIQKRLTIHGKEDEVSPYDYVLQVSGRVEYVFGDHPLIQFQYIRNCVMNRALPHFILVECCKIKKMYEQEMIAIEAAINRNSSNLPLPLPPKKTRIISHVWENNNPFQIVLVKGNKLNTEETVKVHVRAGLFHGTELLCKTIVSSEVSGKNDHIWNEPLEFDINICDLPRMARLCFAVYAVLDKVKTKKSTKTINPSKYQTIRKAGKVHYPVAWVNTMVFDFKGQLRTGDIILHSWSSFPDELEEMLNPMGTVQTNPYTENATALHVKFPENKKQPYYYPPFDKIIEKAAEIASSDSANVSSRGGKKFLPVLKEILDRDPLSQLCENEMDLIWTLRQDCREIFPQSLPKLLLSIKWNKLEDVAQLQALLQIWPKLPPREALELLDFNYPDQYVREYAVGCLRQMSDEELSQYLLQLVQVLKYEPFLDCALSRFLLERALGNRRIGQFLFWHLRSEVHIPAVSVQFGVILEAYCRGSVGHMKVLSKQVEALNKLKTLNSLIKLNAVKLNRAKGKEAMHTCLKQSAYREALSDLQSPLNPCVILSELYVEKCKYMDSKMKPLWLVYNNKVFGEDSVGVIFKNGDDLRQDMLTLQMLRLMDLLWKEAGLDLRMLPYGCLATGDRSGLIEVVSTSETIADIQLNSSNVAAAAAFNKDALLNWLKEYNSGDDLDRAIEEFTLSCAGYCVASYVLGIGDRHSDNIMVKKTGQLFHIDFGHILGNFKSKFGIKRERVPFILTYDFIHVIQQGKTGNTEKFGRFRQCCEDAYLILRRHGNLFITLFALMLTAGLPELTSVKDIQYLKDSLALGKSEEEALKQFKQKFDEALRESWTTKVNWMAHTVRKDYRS

[7] = tested on: IGROV-1; assay: Cell cycle arrest in human IGROV1 cells assessed as accumulation at S phase at 1 fold IC50 after 24 hrs by flow cytometry; type: functional
[8] = tested on: IGROV-1; assay: Cell cycle arrest in human IGROV1 cells assessed as accumulation at S phase at 5 fold IC50 after 24 hrs by flow cytometry; type: functional
[9] = Metabolic stability in mouse liver microsomes assessed as compound metabolized at […] after 30 mins by MS analysis; type: ADME, Microsome; details: read-out: Activity
[10] = tested on: IGROV-1; assay: Cell cycle arrest in human IGROV1 cells assessed as accumulation at G1 phase at 5 fold IC50 after 24 hrs by flow cytometry; type: functional
[11] = tested on: IGROV-1; assay: Cell cycle arrest in human IGROV1 cells assessed as accumulation at G2/M phase at 1 fold IC50 after 24 hrs by flow cytometry; type: functional
[12] = tested on: IGROV-1; assay: Cell cycle arrest in human IGROV1 cells assessed as accumulation at G2/M phase at 5 fold IC50 after 24 hrs by flow cytometry; type: functional

Chain of Phosphatidylinositol 4,5-bisphosphate 3-kinase catalytic subunit alpha isoform (P42336 whole entry, canonical isoform): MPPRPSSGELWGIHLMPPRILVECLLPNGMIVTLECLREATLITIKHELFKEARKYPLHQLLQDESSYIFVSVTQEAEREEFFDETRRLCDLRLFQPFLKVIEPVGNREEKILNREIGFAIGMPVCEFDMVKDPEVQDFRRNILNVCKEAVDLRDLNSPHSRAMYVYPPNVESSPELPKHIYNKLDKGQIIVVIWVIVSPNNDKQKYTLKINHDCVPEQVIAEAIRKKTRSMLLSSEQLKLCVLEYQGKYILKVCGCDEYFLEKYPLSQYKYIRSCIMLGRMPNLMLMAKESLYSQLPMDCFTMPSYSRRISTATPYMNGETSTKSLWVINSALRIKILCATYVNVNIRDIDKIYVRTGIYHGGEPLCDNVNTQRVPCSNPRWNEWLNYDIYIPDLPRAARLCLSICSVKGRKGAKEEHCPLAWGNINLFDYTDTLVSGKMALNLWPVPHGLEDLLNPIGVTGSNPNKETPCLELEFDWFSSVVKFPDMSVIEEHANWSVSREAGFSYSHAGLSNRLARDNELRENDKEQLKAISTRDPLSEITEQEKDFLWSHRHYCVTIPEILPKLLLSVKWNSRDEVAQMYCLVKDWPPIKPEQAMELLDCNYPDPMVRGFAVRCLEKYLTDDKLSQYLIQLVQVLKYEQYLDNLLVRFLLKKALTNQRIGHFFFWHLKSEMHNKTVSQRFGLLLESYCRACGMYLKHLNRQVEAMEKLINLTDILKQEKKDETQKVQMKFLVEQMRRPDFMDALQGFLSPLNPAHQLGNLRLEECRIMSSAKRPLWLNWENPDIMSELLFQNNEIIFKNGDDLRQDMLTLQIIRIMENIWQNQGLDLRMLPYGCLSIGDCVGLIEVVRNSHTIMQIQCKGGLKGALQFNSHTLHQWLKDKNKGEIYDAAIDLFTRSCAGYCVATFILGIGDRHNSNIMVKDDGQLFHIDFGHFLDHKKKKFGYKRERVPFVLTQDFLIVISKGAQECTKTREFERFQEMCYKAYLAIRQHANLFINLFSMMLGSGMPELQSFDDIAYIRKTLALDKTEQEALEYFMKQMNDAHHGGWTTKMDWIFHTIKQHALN

| SMILES | IC50 [1] | GI50 [3] | also measured |
| --- | --- | --- | --- |
| c1ccc(COc2cccc(-c3nc(-c4ccccn4)cc(N4CCOCC4)n3)c2)cc1 | > 10 µM | – | – |
| c1ccc(COc2cccc(-c3nc(-c4cccnc4)cc(N4CCOCC4)n3)c2)cc1 | > 10 µM | – | – |
| c1ccc(COc2cccc(-c3nc(-c4ccncc4)cc(N4CCOCC4)n3)c2)cc1 | > 10 µM | – | – |
| Clc1ccc(-c2cc(N3CCOCC3)nc(-c3cccc(OCc4ccccc4)c3)n2)cc1 | > 10 µM | – | – |
| Clc1ccc(-c2cc(N3CCOCC3)nc(-c3cccc(OCc4ccccc4)c3)n2)cc1Cl | > 10 µM | – | – |
| Oc1cccc(-c2nc(-c3ccccn3)cc(N3CCOCC3)n2)c1 | 0.062 µM | 0.37 µM | metabolised at 0.25 h [2]: 39%; Activity [4]: 76%; IC50 [5]: 0.044 µM; IC50 [6]: 0.1 µM; Activity [7]: 20%; Activity [8]: 5%; metabolised at 0.5 h [9]: 57%; Activity [10]: 84%; Activity [11]: 3%; Activity [12]: 10% |
| Oc1cccc(-c2nc(-c3cccnc3)cc(N3CCOCC3)n2)c1 | 0.26 µM | 0.63 µM | IC50 [5]: 0.34 µM; IC50 [6]: 0.44 µM |
| Oc1cccc(-c2nc(-c3ccncc3)cc(N3CCOCC3)n2)c1 | 0.14 µM | 1.2 µM | IC50 [5]: 0.15 µM; IC50 [6]: 0.2 µM |
| Oc1cccc(-c2nc(-c3ccc(Cl)cc3)cc(N3CCOCC3)n2)c1 | 0.69 µM | – | – |
| Oc1cccc(-c2nc(-c3ccc(Cl)c(Cl)c3)cc(N3CCOCC3)n2)c1 | 0.2 µM | – | – |
| Oc1cccc(-c2cc(NCc3ccccn3)nc(N3CCOCC3)n2)c1 | 0.9 µM | – | IC50 [5]: 7.6 µM; IC50 [6]: 2.3 µM |
| Oc1cccc(-c2cc(NCc3ccncc3)nc(N3CCOCC3)n2)c1 | 1 µM | – | – |
| Oc1cccc(-c2cc(NCCc3ccccn3)nc(N3CCOCC3)n2)c1 | 0.25 µM | 2.2 µM | IC50 [5]: 0.83 µM; IC50 [6]: 2.6 µM |
| Oc1cccc(-c2cc(NCCc3cccnc3)nc(N3CCOCC3)n2)c1 | 0.26 µM | 1.2 µM | IC50 [5]: 0.96 µM; IC50 [6]: 1.9 µM |
| Oc1cccc(-c2cc(NCCc3ccncc3)nc(N3CCOCC3)n2)c1 | 0.14 µM | 0.7 µM | metabolised at 0.25 h [2]: 54%; Activity [4]: 75%; IC50 [5]: 0.74 µM; IC50 [6]: 1.6 µM; Activity [7]: 21%; Activity [8]: 2%; metabolised at 0.5 h [9]: 71%; Activity [10]: 87%; Activity [11]: 4%; Activity [12]: 10% |
| Oc1cccc(-c2cc(N3CCOCC3)nc(NCc3ccccn3)n2)c1 | 1 µM | – | – |
| Oc1cccc(-c2cc(N3CCOCC3)nc(NCc3cccnc3)n2)c1 | 0.88 µM | – | – |
| Oc1cccc(-c2cc(N3CCOCC3)nc(NCc3ccncc3)n2)c1 | 0.86 µM | – | – |
| Oc1cccc(-c2cc(N3CCOCC3)nc(NCCc3ccccn3)n2)c1 | 0.18 µM | 1.2 µM | IC50 [5]: 0.38 µM; IC50 [6]: 5.2 µM |
| Oc1cccc(-c2cc(N3CCOCC3)nc(NCCc3cccnc3)n2)c1 | 0.25 µM | 0.75 µM | – |
| Oc1cccc(-c2cc(N3CCOCC3)nc(NCCc3ccncc3)n2)c1 | 0.23 µM | 0.95 µM | – |
| Oc1cccc(-c2cc(OCc3ccccn3)nc(N3CCOCC3)n2)c1 | 0.11 µM | 1.5 µM | IC50 [5]: 0.73 µM; IC50 [6]: 0.37 µM |
| Oc1cccc(-c2cc(N3CCOCC3)nc(OCc3ccccn3)n2)c1 | 0.86 µM | 2.5 µM | – |
| c1ccc(CCNc2cc(-c3ccc4cc[nH]c4c3)nc(N3CCOCC3)n2)nc1 | > 10 µM | 12 µM | – |

| SMILES | IC50 [1] | GI50 [3] | also measured |
| --- | --- | --- | --- |
| c1cncc(CCNc2cc(-c3ccc4cc[nH]c4c3)nc(N3CCOCC3)n2)c1 | > 10 µM | 6 µM | – |
| c1cc(CCNc2cc(-c3ccc4cc[nH]c4c3)nc(N3CCOCC3)n2)ccn1 | > 10 µM | 14.5 µM | – |
| CS(=O)(=O)Nc1cccc(-c2cc(NCCc3ccccn3)nc(N3CCOCC3)n2)c1 | > 10 µM | 15 µM | – |
| CS(=O)(=O)Nc1cccc(-c2cc(NCCc3cccnc3)nc(N3CCOCC3)n2)c1 | > 10 µM | 11.6 µM | – |
| CS(=O)(=O)Nc1cccc(-c2cc(NCCc3ccncc3)nc(N3CCOCC3)n2)c1 | > 10 µM | 15 µM | – |
| c1ccc(CCNc2cc(-c3cccc4[nH]ncc34)nc(N3CCOCC3)n2)nc1 | 1.3 µM | 7.8 µM | metabolised at 0.25 h [2]: 58%; metabolised at 0.5 h [9]: 84% |
| c1cncc(CCNc2cc(-c3cccc4[nH]ncc34)nc(N3CCOCC3)n2)c1 | 0.66 µM | 2.9 µM | metabolised at 0.25 h [2]: 66%; metabolised at 0.5 h [9]: 98% |
| c1cc(-c2cc(NCCc3ccncc3)nc(N3CCOCC3)n2)c2cn[nH]c2c1 | 0.77 µM | 2.7 µM | metabolised at 0.25 h [2]: 37%; metabolised at 0.5 h [9]: 68% |
| c1ccc(COc2cc(-c3ccc4cc[nH]c4c3)nc(N3CCOCC3)n2)nc1 | > 10 µM | 6 µM | – |
| CS(=O)(=O)Nc1ccc(-c2cc(OCc3ccccn3)nc(N3CCOCC3)n2)cc1 | > 10 µM | 16 µM | – |
| c1ccc(COc2cc(-c3cccc4[nH]ncc34)nc(N3CCOCC3)n2)nc1 | 0.5 µM | 1.9 µM | metabolised at 0.25 h [2]: 44%; metabolised at 0.5 h [9]: 66% |
| c1cncc(CCNc2nc(-c3ccc4cc[nH]c4c3)cc(N3CCOCC3)n2)c1 | 7.2 µM | 4.2 µM | – |
| c1cc(CCNc2nc(-c3ccc4cc[nH]c4c3)cc(N3CCOCC3)n2)ccn1 | > 10 µM | 3 µM | metabolised at 0.25 h [2]: 38%; metabolised at 0.5 h [9]: 60% |
| CS(=O)(=O)Nc1cccc(-c2cc(N3CCOCC3)nc(NCCc3ccccn3)n2)c1 | > 10 µM | 11.5 µM | – |
| CS(=O)(=O)Nc1cccc(-c2cc(N3CCOCC3)nc(NCCc3cccnc3)n2)c1 | > 10 µM | 16.2 µM | – |
| CS(=O)(=O)Nc1cccc(-c2cc(N3CCOCC3)nc(NCCc3ccncc3)n2)c1 | 9.1 µM | 6.2 µM | metabolised at 0.25 h [2]: 33%; metabolised at 0.5 h [9]: 53% |
| c1ccc(CCNc2nc(-c3cccc4[nH]ncc34)cc(N3CCOCC3)n2)nc1 | 1.1 µM | 2.7 µM | – |
| c1cncc(CCNc2nc(-c3cccc4[nH]ncc34)cc(N3CCOCC3)n2)c1 | 0.82 µM | 2.9 µM | – |
| c1cc(-c2cc(N3CCOCC3)nc(NCCc3ccncc3)n2)c2cn[nH]c2c1 | 0.44 µM | 1.5 µM | metabolised at 0.25 h [2]: 49%; metabolised at 0.5 h [9]: 74% |
| c1ccc(COc2nc(-c3ccc4cc[nH]c4c3)cc(N3CCOCC3)n2)nc1 | 5.2 µM | 9 µM | – |
| CS(=O)(=O)Nc1ccc(-c2cc(N3CCOCC3)nc(OCc3ccccn3)n2)cc1 | 6.2 µM | 13.5 µM | – |
| c1ccc(COc2nc(-c3cccc4[nH]ncc34)cc(N3CCOCC3)n2)nc1 | 1.35 µM | 2.3 µM | – |
| O=c1cc(N2CCOCC2)oc2c(-c3ccccc3)cccc12 [LY-294002] | – | – | Activity [4]: 72%; Activity [7]: 21%; Activity [8]: 3%; Activity [10]: 82%; Activity [11]: 7%; Activity [12]: 15% |
